From PubChem BioAssay AID1919017 (Molecular Pharmacology Branch, DTP, NCI, 2023)

Test system: SW1271 complex spheroids with HUVEC/MSC, growth, % test/control
Test: Anticancer human tumor SW1271 cell line growth inhibition [AhR];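 note: spheroids exposed to agents for 7 days before readout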
Conditions: for IC50: curve of first compound; for viability, T/C: stronger effect = lower value
In short: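 Spheroids combined tumor cells with HUVEC endothelial cells and human MSCs as stroma. AhR antagonists were paired with standard or investigational drugs, each dosed in half-log steps down from near clinical Cmax, or from 10 microM where Cmax was unknown.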

[1] = second compound 0.1 µM, first compound 0.00316 µM
[2] = second compound 0.1 µM, first compound 0.01 µM
[3] = second compound 0.1 µM, first compound 0.0316 µM
[4] = second compound 0.1 µM, first compound 0.1 µM
[5] = second compound 0.316 µM, first compound 0.00316 µM
[6] = second compound 0.316 µM, first compound 0.01 µM
[7] = second compound 0.316 µM, first compound 0.0316 µM
[8] = second compound 0.316 µM, first compound 0.1 µM
[9] = second compound 1 µM, first compound 0.00316 µM
[10] = second compound 1 µM, first compound 0.01 µM
[11] = second compound 1 µM, first compound 0.0316 µM
[12] = second compound 1 µM, first compound 0.1 µM
[13] = second compound 3.16 µM, first compound 0.00316 µM
[14] = second compound 3.16 µM, first compound 0.01 µM
[15] = second compound 3.16 µM, first compound 0.0316 µM
[16] = second compound 3.16 µM, first compound 0.1 µM
[17] = second compound 10 µM, first compound 0.00316 µM
[18] = second compound 10 µM, first compound 0.01 µM
[19] = second compound 10 µM, first compound 0.0316 µM
[20] = second compound 10 µM, first compound 0.1 µM
[21] = second compound 0.1 µM, first compound 0.316 µM
[22] = second compound 0.1 µM, first compound 1 µM
[23] = second compound 0.1 µM, first compound 3.16 µM
[24] = second compound 0.1 µM, first compound 10 µM
[25] = second compound 0.316 µM, first compound 0.316 µM
[26] = second compound 0.316 µM, first compound 1 µM
[27] = second compound 0.316 µM, first compound 3.16 µM
[28] = second compound 0.316 µM, first compound 10 µM
[29] = second compound 1 µM, first compound 0.316 µM
[30] = second compound 1 µM, first compound 1 µM
[31] = second compound 1 µM, first compound 3.16 µM
[32] = second compound 1 µM, first compound 10 µM
[33] = second compound 3.16 µM, first compound 0.316 µM
[34] = second compound 3.16 µM, first compound 1 µM
[35] = second compound 3.16 µM, first compound 3.16 µM
[36] = second compound 3.16 µM, first compound 10 µM
[37] = second compound 10 µM, first compound 0.316 µM
[38] = second compound 10 µM, first compound 1 µM
[39] = second compound 10 µM, first compound 3.16 µM
[40] = second compound 10 µM, first compound 10 µM

SMILES | IC50 (second compound 0.1 µM) | IC50 (second compound 0.316 µM) | IC50 (second compound 1 µM) | IC50 (second compound 3.16 µM) | IC50 (second compound 10 µM) | viability, T/C [3] | viability, T/C [4] | viability, T/C [7] | viability, T/C [8] | viability, T/C [11] | viability, T/C [12] | viability, T/C [15] | viability, T/C [16] | viability, T/C [19] | viability, T/C [20] | viability, T/C [21] | viability, T/C [22] | viability, T/C [25] | viability, T/C [26] | viability, T/C [29] | further results
CC[C@@]1(O)C(=O)OCc2c1cc1n(c2=O)Cc2cc3c(CN(C)C)c(O)ccc3nc2-1 + Cc1cncc(-c2nc(NCCc3c[nH]c4ccccc34)c3ncn(C(C)C)c3n2)c1 | > 100 nM | > 100 nM | > 100 nM | > 100 nM | 11.9 nM | 105% | 91% | 102% | 67% | 77.4% | 80.2% | 96% | 78% | 45% | 37.1% |  |  |  |  |  | viability, T/C (second compound 0.1 µM, first compound 0.000316 µM): 85.2%; viability, T/C (second compound 0.1 µM, first compound 0.001 µM): 99.7%; viability, T/C [1]: 124%; viability, T/C [2]: 84.9%; viability, T/C (second compound 0.316 µM, first compound 0.000316 µM): 93.5%; viability, T/C (second compound 0.316 µM, first compound 0.001 µM): 114%; viability, T/C [5]: 108%; viability, T/C [6]: 94.3%; viability, T/C (second compound 1 µM, first compound 0.000316 µM): 100%; viability, T/C (second compound 1 µM, first compound 0.001 µM): 118%; viability, T/C [9]: 108%; viability, T/C [10]: 88.9%; viability, T/C (second compound 3.16 µM, first compound 0.000316 µM): 95.2%; viability, T/C (second compound 3.16 µM, first compound 0.001 µM): 109%; viability, T/C [13]: 106%; viability, T/C [14]: 86.5%; viability, T/C (second compound 10 µM, first compound 0.000316 µM): 66.1%; viability, T/C (second compound 10 µM, first compound 0.001 µM): 62.2%; viability, T/C [17]: 52%; viability, T/C [18]: 54.5%
COc1cc(C2c3cc4c(cc3C(OC3OC5COC(C)OC5C(O)C3O)C3COC(=O)C23)OCO4)cc(OC)c1O (stereo not given) + Cc1cncc(-c2nc(NCCc3c[nH]c4ccccc34)c3ncn(C(C)C)c3n2)c1 | > 10000 nM | > 10000 nM | > 10000 nM | > 10000 nM | < 31.6 nM | 81.6% | 88.5% | 86.1% | 86.3% | 96.2% | 80.1% | 89.8% | 99.2% | 41.5% | 39.6% | 68.1% | 60.7% | 67.4% | 53.8% | 79.2% | viability, T/C [23]: 63.6%; viability, T/C [24]: 65.3%; viability, T/C [27]: 66.1%; viability, T/C [28]: 53.4%; viability, T/C [30]: 80.9%; viability, T/C [31]: 55.9%; viability, T/C [32]: 72%; viability, T/C [33]: 112%; viability, T/C [34]: 76.2%; viability, T/C [35]: 72.4%; viability, T/C [36]: 70.6%; viability, T/C [37]: 41%; viability, T/C [38]: 35.4%; viability, T/C [39]: 32.6%; viability, T/C [40]: 29.1%
COc1cccc2c1C(=O)c1c(O)c3c(c(O)c1C2=O)CC(O)(C(=O)CO)CC3OC1CC(N)C(O)C(C)O1 (stereo not given) + Cc1cncc(-c2nc(NCCc3c[nH]c4ccccc34)c3ncn(C(C)C)c3n2)c1 | 332 nM | 280 nM | 380 nM | 258 nM | < 31.6 nM | 74% | 79.5% | 81.5% | 72.4% | 89.5% | 89% | 95% | 77.8% | 48% | 38.4% | 51.9% | 6.7% | 47.1% | 2.96% | 58.8% | viability, T/C [23]: 3.78%; viability, T/C [24]: 5.75%; viability, T/C [27]: 3.17%; viability, T/C [28]: 6.88%; viability, T/C [30]: 1.94%; viability, T/C [31]: 4.32%; viability, T/C [32]: 4.87%; viability, T/C [33]: 46.4%; viability, T/C [34]: 1.86%; viability, T/C [35]: 5.28%; viability, T/C [36]: 7.13%; viability, T/C [37]: 24.3%; viability, T/C [38]: 3.36%; viability, T/C [39]: 9.24%; viability, T/C [40]: 7.74%
Nc1ccn(C2OC(CO)C(O)C2(F)F)c(=O)n1 (stereo not given) + Cc1cncc(-c2nc(NCCc3c[nH]c4ccccc34)c3ncn(C(C)C)c3n2)c1 | > 10000 nM | > 10000 nM | > 10000 nM | > 10000 nM | < 31.6 nM | 75.4% | 97.1% | 60.5% | 65.8% | 74.2% | 72.8% | 81.1% | 78.6% | 39.5% | 38.2% | 67% | 64% | 68% | 64.3% | 85.4% | viability, T/C [23]: 62.7%; viability, T/C [24]: 54.6%; viability, T/C [27]: 66.9%; viability, T/C [28]: 56.8%; viability, T/C [30]: 65%; viability, T/C [31]: 67.8%; viability, T/C [32]: 58.4%; viability, T/C [33]: 103%; viability, T/C [34]: 65%; viability, T/C [35]: 81.8%; viability, T/C [36]: 75.2%; viability, T/C [37]: 39.3%; viability, T/C [38]: 36.7%; viability, T/C [39]: 37.8%; viability, T/C [40]: 30.6%
Nc1ncn(C2CC(O)C(CO)O2)c(=O)n1 (stereo not given) + Cc1cncc(-c2nc(NCCc3c[nH]c4ccccc34)c3ncn(C(C)C)c3n2)c1 | > 1000 nM | > 1000 nM | > 1000 nM | > 1000 nM | 307 nM | 104% | 87% | 111% | 83.4% | 107% | 77.3% | 87.9% | 104% | 51% | 53% | 83.1% | 83.8% | 76.3% | 95.1% | 111% | viability, T/C [1]: 107%; viability, T/C [2]: 123%; viability, T/C [5]: 105%; viability, T/C [6]: 92.6%; viability, T/C [9]: 88.1%; viability, T/C [10]: 90.5%; viability, T/C [30]: 84%; viability, T/C [13]: 97.4%; viability, T/C [14]: 103%; viability, T/C [33]: 90%; viability, T/C [34]: 110%; viability, T/C [17]: 52.4%; viability, T/C [18]: 54.8%; viability, T/C [37]: 48.9%; viability, T/C [38]: 47.5%
